{"source": "the NIST ThermoML archive (doi:10.1016/j.jct.2015.10.006)", "conditions": "Liquid, Frequency=8 MHz, Pulse-echo method", "note": "± gives the expanded uncertainty stated by the source."}
{"smiles": "CO", "note": "[methanol]", "values": [{"measurement": "speed of sound", "setting": "253.15 K, 101 kPa", "result": "1259.4 ± 0.68", "unit": "m/s"}, {"measurement": "speed of sound", "setting": "253.15 K, 5031 kPa", "result": "1283.6 ± 0.69", "unit": "m/s"}, {"measurement": "speed of sound", "setting": "253.15 K, 10064 kPa", "result": "1307.3 ± 0.7", "unit": "m/s"}, {"measurement": "speed of sound", "setting": "253.15 K, 15070 kPa", "result": "1329.9 ± 0.71", "unit": "m/s"}, {"measurement": "speed of sound", "setting": "253.15 K, 20048 kPa", "result": "1351.5 ± 0.72", "unit": "m/s"}, {"measurement": "speed of sound", "setting": "253.15 K, 25130 kPa", "result": "1372.8 ± 0.73", "unit": "m/s"}, {"measurement": "speed of sound", "setting": "253.15 K, 30260 kPa", "result": "1393.5 ± 0.74", "unit": "m/s"}, {"measurement": "speed of sound", "setting": "273.15 K, 101 kPa", "result": "1187.3 ± 0.65", "unit": "m/s"}, {"measurement": "speed of sound", "setting": "273.15 K, 5017 kPa", "result": "1213.8 ± 0.66", "unit": "m/s"}, {"measurement": "speed of sound", "setting": "273.15 K, 10158 kPa", "result": "1240 ± 0.67", "unit": "m/s"}, {"measurement": "speed of sound", "setting": "273.15 K, 15070 kPa", "result": "1264 ± 0.68", "unit": "m/s"}, {"measurement": "speed of sound", "setting": "273.15 K, 20132 kPa", "result": "1287.6 ± 0.69", "unit": "m/s"}, {"measurement": "speed of sound", "setting": "273.15 K, 25155 kPa", "result": "1310.1 ± 0.7", "unit": "m/s"}, {"measurement": "speed of sound", "setting": "273.15 K, 30074 kPa", "result": "1331.4 ± 0.71", "unit": "m/s"}, {"measurement": "speed of sound", "setting": "293.15 K, 101 kPa", "result": "1119.1 ± 0.62", "unit": "m/s"}, {"measurement": "speed of sound", "setting": "293.15 K, 5028 kPa", "result": "1147.8 ± 0.63", "unit": "m/s"}, {"measurement": "speed of sound", "setting": "293.15 K, 10032 kPa", "result": "1175.5 ± 0.65", "unit": "m/s"}, {"measurement": "speed of sound", "setting": "293.15 K, 15145 kPa", "result": "1202.4 ± 0.66", "unit": "m/s"}, {"measurement": "speed of sound", "setting": "293.15 K, 20159 kPa", "result": "1227.6 ± 0.67", "unit": "m/s"}, {"measurement": "speed of sound", "setting": "293.15 K, 25062 kPa", "result": "1251.1 ± 0.68", "unit": "m/s"}, {"measurement": "speed of sound", "setting": "293.15 K, 30276 kPa", "result": "1275.1 ± 0.69", "unit": "m/s"}, {"measurement": "speed of sound", "setting": "313.15 K, 101 kPa", "result": "1053.2 ± 0.59", "unit": "m/s"}, {"measurement": "speed of sound", "setting": "313.15 K, 5046 kPa", "result": "1084.8 ± 0.61", "unit": "m/s"}, {"measurement": "speed of sound", "setting": "313.15 K, 10127 kPa", "result": "1115.4 ± 0.62", "unit": "m/s"}, {"measurement": "speed of sound", "setting": "313.15 K, 15085 kPa", "result": "1143.5 ± 0.63", "unit": "m/s"}, {"measurement": "speed of sound", "setting": "313.15 K, 19989 kPa", "result": "1170 ± 0.64", "unit": "m/s"}, {"measurement": "speed of sound", "setting": "313.15 K, 25090 kPa", "result": "1196.1 ± 0.65", "unit": "m/s"}, {"measurement": "speed of sound", "setting": "313.15 K, 30009 kPa", "result": "1220.1 ± 0.66", "unit": "m/s"}, {"measurement": "speed of sound", "setting": "333.15 K, 101 kPa", "result": "988.92 ± 0.57", "unit": "m/s"}, {"measurement": "speed of sound", "setting": "333.15 K, 5029 kPa", "result": "1023.7 ± 0.58", "unit": "m/s"}, {"measurement": "speed of sound", "setting": "333.15 K, 10110 kPa", "result": "1056.9 ± 0.59", "unit": "m/s"}, {"measurement": "speed of sound", "setting": "333.15 K, 15215 kPa", "result": "1088.2 ± 0.61", "unit": "m/s"}, {"measurement": "speed of sound", "setting": "333.15 K, 20093 kPa", "result": "1116.3 ± 0.62", "unit": "m/s"}, {"measurement": "speed of sound", "setting": "333.15 K, 25061 kPa", "result": "1143.5 ± 0.63", "unit": "m/s"}, {"measurement": "speed of sound", "setting": "333.15 K, 30122 kPa", "result": "1169.9 ± 0.64", "unit": "m/s"}, {"measurement": "speed of sound", "setting": "353.15 K, 197 kPa", "result": "925.58 ± 0.54", "unit": "m/s"}, {"measurement": "speed of sound", "setting": "353.15 K, 5097 kPa", "result": "963.76 ± 0.56", "unit": "m/s"}, {"measurement": "speed of sound", "setting": "353.15 K, 10106 kPa", "result": "999.62 ± 0.57", "unit": "m/s"}, {"measurement": "speed of sound", "setting": "353.15 K, 15143 kPa", "result": "1033 ± 0.58", "unit": "m/s"}, {"measurement": "speed of sound", "setting": "353.15 K, 20216 kPa", "result": "1064.5 ± 0.6", "unit": "m/s"}, {"measurement": "speed of sound", "setting": "353.15 K, 25221 kPa", "result": "1093.7 ± 0.61", "unit": "m/s"}, {"measurement": "speed of sound", "setting": "353.15 K, 30092 kPa", "result": "1120.6 ± 0.62", "unit": "m/s"}]}
{"smiles": "CCCO", "note": "[propan-1-ol]", "values": [{"measurement": "speed of sound", "setting": "253.15 K, 102 kPa", "result": "1368 ± 0.69", "unit": "m/s"}, {"measurement": "speed of sound", "setting": "253.15 K, 5133 kPa", "result": "1393 ± 0.7", "unit": "m/s"}, {"measurement": "speed of sound", "setting": "253.15 K, 10109 kPa", "result": "1416.6 ± 0.71", "unit": "m/s"}, {"measurement": "speed of sound", "setting": "253.15 K, 15198 kPa", "result": "1439.9 ± 0.72", "unit": "m/s"}, {"measurement": "speed of sound", "setting": "253.15 K, 20092 kPa", "result": "1461.4 ± 0.73", "unit": "m/s"}, {"measurement": "speed of sound", "setting": "253.15 K, 25341 kPa", "result": "1483.7 ± 0.74", "unit": "m/s"}, {"measurement": "speed of sound", "setting": "253.15 K, 30423 kPa", "result": "1504.6 ± 0.75", "unit": "m/s"}, {"measurement": "speed of sound", "setting": "273.15 K, 101 kPa", "result": "1293.5 ± 0.67", "unit": "m/s"}, {"measurement": "speed of sound", "setting": "273.15 K, 5181 kPa", "result": "1320.8 ± 0.68", "unit": "m/s"}, {"measurement": "speed of sound", "setting": "273.15 K, 10163 kPa", "result": "1346.3 ± 0.69", "unit": "m/s"}, {"measurement": "speed of sound", "setting": "273.15 K, 15287 kPa", "result": "1371.4 ± 0.7", "unit": "m/s"}, {"measurement": "speed of sound", "setting": "273.15 K, 20261 kPa", "result": "1394.8 ± 0.7", "unit": "m/s"}, {"measurement": "speed of sound", "setting": "273.15 K, 25076 kPa", "result": "1416.6 ± 0.71", "unit": "m/s"}, {"measurement": "speed of sound", "setting": "273.15 K, 30164 kPa", "result": "1438.9 ± 0.72", "unit": "m/s"}, {"measurement": "speed of sound", "setting": "293.15 K, 105 kPa", "result": "1222.5 ± 0.64", "unit": "m/s"}, {"measurement": "speed of sound", "setting": "293.15 K, 5042 kPa", "result": "1251.2 ± 0.65", "unit": "m/s"}, {"measurement": "speed of sound", "setting": "293.15 K, 10141 kPa", "result": "1279.3 ± 0.66", "unit": "m/s"}, {"measurement": "speed of sound", "setting": "293.15 K, 15272 kPa", "result": "1306.3 ± 0.67", "unit": "m/s"}, {"measurement": "speed of sound", "setting": "293.15 K, 20136 kPa", "result": "1330.7 ± 0.68", "unit": "m/s"}, {"measurement": "speed of sound", "setting": "293.15 K, 25068 kPa", "result": "1354.6 ± 0.69", "unit": "m/s"}, {"measurement": "speed of sound", "setting": "293.15 K, 30231 kPa", "result": "1378.5 ± 0.7", "unit": "m/s"}, {"measurement": "speed of sound", "setting": "313.01 K, 30237 kPa", "result": "1321.2 ± 0.68", "unit": "m/s"}, {"measurement": "speed of sound", "setting": "313.15 K, 108 kPa", "result": "1154.1 ± 0.61", "unit": "m/s"}, {"measurement": "speed of sound", "setting": "313.15 K, 5139 kPa", "result": "1185.8 ± 0.62", "unit": "m/s"}, {"measurement": "speed of sound", "setting": "313.15 K, 10136 kPa", "result": "1215.4 ± 0.64", "unit": "m/s"}, {"measurement": "speed of sound", "setting": "313.15 K, 15128 kPa", "result": "1243.6 ± 0.65", "unit": "m/s"}, {"measurement": "speed of sound", "setting": "313.15 K, 20151 kPa", "result": "1270.6 ± 0.66", "unit": "m/s"}, {"measurement": "speed of sound", "setting": "313.15 K, 25136 kPa", "result": "1296.1 ± 0.67", "unit": "m/s"}, {"measurement": "speed of sound", "setting": "333.15 K, 101 kPa", "result": "1086.8 ± 0.59", "unit": "m/s"}, {"measurement": "speed of sound", "setting": "333.15 K, 5018 kPa", "result": "1120.5 ± 0.6", "unit": "m/s"}, {"measurement": "speed of sound", "setting": "333.15 K, 10050 kPa", "result": "1152.8 ± 0.61", "unit": "m/s"}, {"measurement": "speed of sound", "setting": "333.15 K, 15186 kPa", "result": "1183.9 ± 0.62", "unit": "m/s"}, {"measurement": "speed of sound", "setting": "333.15 K, 20183 kPa", "result": "1212.5 ± 0.64", "unit": "m/s"}, {"measurement": "speed of sound", "setting": "333.15 K, 25121 kPa", "result": "1239.5 ± 0.65", "unit": "m/s"}, {"measurement": "speed of sound", "setting": "333.15 K, 30028 kPa", "result": "1265 ± 0.66", "unit": "m/s"}, {"measurement": "speed of sound", "setting": "353.15 K, 104 kPa", "result": "1018.9 ± 0.56", "unit": "m/s"}, {"measurement": "speed of sound", "setting": "353.15 K, 5034 kPa", "result": "1056 ± 0.58", "unit": "m/s"}, {"measurement": "speed of sound", "setting": "353.15 K, 10009 kPa", "result": "1090.8 ± 0.59", "unit": "m/s"}, {"measurement": "speed of sound", "setting": "353.15 K, 15132 kPa", "result": "1124.2 ± 0.6", "unit": "m/s"}, {"measurement": "speed of sound", "setting": "353.15 K, 20099 kPa", "result": "1154.8 ± 0.61", "unit": "m/s"}, {"measurement": "speed of sound", "setting": "353.15 K, 25054 kPa", "result": "1183.6 ± 0.62", "unit": "m/s"}, {"measurement": "speed of sound", "setting": "353.15 K, 30493 kPa", "result": "1213.6 ± 0.64", "unit": "m/s"}]}
